Drawing on PubChem BioAssay (NCI), this text covers TGI for 8 molecules.

Holding throughout (experiment): inhibition of tumour cell growth, NCI panel, 48 h
For assay [1], the system named is SNB-75 CNS.
In assay [2] the test system is HOP-92 NSCLC.
The subject of assay [3] is MDA-MB-435.
Assay [4] concerns A498 renal.
For assay [5], the system named is NCI-H226 lung.
For assay [6], the system named is HS 578T breast.
Assay [7] deals with SR leukemia.
Assay [8] has as its system OVCAR-5 ovarian.
The test system of assay [9] is HCT-15 colon.
For assay [10], the system named is ACHN renal.
For assay [11], the system named is 786-0 renal.
The test system of assay [12] is SF-268 CNS.
In assay [13] the test system is PC-3 prostate.
Assay [14] relates to TK-10 renal.
Assay [15] relates to NCI/ADR-RES ovarian.
Assay [16] concerns M14 melanoma.
The test system of assay [17] is DU-145 prostate.
The subject of assay [18] is RXF 393 renal.
The subject of assay [19] is CAKI-1 renal.
In assay [20] the test system is BT-549 breast.

Each structure is given as a SMILES string.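 Exposure lasted 48 hours, with cells grown in 96-well plates and compounds tested at five concentrations. TGI marks complete inhibition of growth.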

With `COc1ccc(/C=C2\NC(=S)N(CN3CCCCC3)C2=O)cc1`, the TGI in assay [1] is 79 µM; in [2], more than 100 µM; in [3] it was more than 100 µM; in [4] it was more than 100 µM; in assay [5], more than 100 µM; in [6], 42 µM. Further, the TGI was more than 100 µM in assay [7]; more than 100 µM in [8]; more than 100 µM in assay [9]; more than 100 µM in assay [10]; more than 100 µM in assay [11]; 50.4 µM in assay [12]. In addition, the TGI in assay [13], in [14], in [15], in [16] and in assay [17] was more than 100 µM in each case.

On to `O=C1C(Cl)=C(OCCCCl)C(=O)c2c(O)ccc(O)c21`, for which the TGI in assay [1] came to 3.91 µM; in [2], 3.28 µM; in assay [18], 4.38 µM; in assay [4] it was 28.5 µM; in assay [5] it was 30.8 µM; in assay [19] it was 2.51 µM. Further, the TGI stood at 22.8 µM in assay [6]; 1.2 µM in assay [7]; 26.4 µM in assay [8]; 5.06 µM in assay [9]; 16.3 µM in assay [10]; 4.81 µM in assay [11]. Further, the TGI in assay [12] amounted to 8.61 µM; in assay [13], 12.7 µM; in assay [14] it was 9.48 µM; in [20], 3.86 µM; in [15], 24.3 µM; in assay [16], 2.96 µM. The molecule also registered a TGI in assay [17] of 22.8 µM.

For `CCOC(CN=C=S)OCC`, the TGI in assay [1], in [2], in assay [18], in assay [3], in assay [4] and in [5] was more than 10 µM throughout. The TGI in assay [19], in assay [6], in assay [7], in [9], in [10] and in assay [11] was more than 10 µM each time. In addition, the TGI in assay [12], in assay [13], in [14], in assay [15], in assay [16] and in assay [17] was more than 10 µM throughout.

For the molecule `CCOP(=O)(OCC)C1CC(O)C(=O)N1` (configuration not stated), the TGI in assay [1], in assay [3], in assay [4], in assay [5], in [6] and in assay [7] was more than 100 µM throughout. For the same molecule, the TGI in [8], in [9], in [10], in assay [11], in [12] and in [13] was more than 100 µM in each case. The TGI in assay [14], in [15], in [16] and in assay [17] was more than 100 µM in each case.

Turning to `O=Nc1c(O)cc(Nc2ccc(Br)cc2)c2ccccc12`, the TGI came out at 45.2 µM in assay [2]; 50.3 µM in assay [18]; 3.37 µM in assay [3]; 22.2 µM in assay [4]; 10.5 µM in [5]; 23.7 µM in assay [19]. The TGI in [6] is more than 28.4 µM; in [7], 72.4 µM; in assay [8], 29.8 µM; in assay [9] it was 15 µM; in [10], 25.1 µM; in assay [11], 27.3 µM. Further, the TGI was more than 55.6 µM in assay [12]; more than 100 µM in assay [13]; 27.7 µM in [14]; 33.1 µM in assay [15]; 3.03 µM in assay [16]; 3.33 µM in assay [17].

Turning to `CCOC(=O)c1c(N)sc2c1C(C(=O)OCC)CC2` (configuration not stated), the TGI is more than 100 µM in assay [1]; more than 100 µM in assay [2]; more than 100 µM in assay [18]; 82.1 µM in [4]; more than 100 µM in assay [5]; more than 100 µM in [6]. Moreover, the TGI in assay [7], in assay [8], in assay [9], in assay [10], in assay [11] and in [13] was more than 100 µM in each case. The TGI in assay [14], in assay [20] and in [16] was more than 100 µM in each case.

As for `O=S(=O)(O)c1ccc(O)c2ncc(Cl)cc12`, the TGI in [1], in assay [2], in [18], in assay [3], in assay [4] and in assay [5] was more than 100 µM throughout. In addition, the TGI in assay [19], in assay [7], in assay [8], in assay [9], in [10] and in assay [11] was more than 100 µM each time. Also, the TGI in assay [13], in assay [20], in [15], in assay [16] and in assay [17] was more than 100 µM each time.

With `O=C(/C=C/c1ccccc1)/C=N/N1C(=S)N(c2ccccc2)C(=Nc2ccccc2)C1=Nc1ccccc1`, the TGI in assay [2], in [18], in [5], in assay [19], in assay [6] and in [7] was more than 100 µM each time. Also, the TGI in [8], in assay [9], in assay [10], in assay [11], in [12] and in assay [13] was more than 100 µM in each case. For the same molecule, the TGI in assay [14], in assay [20], in assay [15], in assay [16] and in assay [17] was more than 100 µM in each case.
